The text below walks through data of US8455439B2, “Antidotes for factor Xa inhibitors and methods of using the same in combination with blood coagulating agents” (Portola Pharmaceuticals, Inc., priority 2008, dated 2013).

“And” between values parts separate entries of the source, which are not always exact repeats. Identical values can stand only once.

Series [1] has as its system pooled human plasma. Kind of series: Prothrombin time (PT) clotting assay, MLA Electra 800 automatic coagulation timer. It counts as biochemical. The following applies: 1 μM rivaroxaban alone (baseline 12.2 sec).
For series [2] the following is noted: cited from earlier work.
Series [3] concerns thrombin generation in human plasma. Kind of series: Thrombin generation assay in platelet poor or platelet rich plasma. Particulars: 250 nM betrixaban, at all rfVIIa concentrations tested (50-200 nM) with tissue factor; FIG. 4. The class given is biochemical.
Method: PRP and PPP were prepared by spinning the anticoagulated blood at ˜100× gravity or 1000× gravity for 20 minutes, respectively, at room temperature. 75-100 microliter (uL) plasma was mixed with CaCl2 and Z-Gly-Gly-Arg-aminomethylcoumarin (Z-GGR-AMC, a thrombin fluorogenic substrate). Tissue factor (Innovin, Dade Behring) was added to initiate the generation of thrombin. For a typical experiment, the reaction mixture contained 15 millimolar (mM) Ca^2+, 100 micromolar (μM) Z-GGR-AMC, and 0.1 nanomolar (nM) tissue factor (TF) (Innovin). Thrombin formation was monitored continuously at 37° C. by a fluorometric plate reader (Molecular Devices) measuring the relative fluorescence units (RFU). Inhibitor and antidote, when present, were pre-incubated with plasma for 20 minutes at room temperature before initiation of thrombin generation.
PRP and PPP were prepared by spinning the anticoagulated blood at ˜100× gravity or 1000× gravity for 20 minutes, respectively, at room temperature. […] Tissue factor (Innovin, Dade Behring) and CaCl2 were added to initiate the generation of thrombin. […] Thrombin formation was monitored continuously at 37° C. by a fluorometric plate reader (Molecular Devices) measuring the relative fluorescence units (RFU). […]
The subject of series [4] is human platelet poor plasma. Kind of series: Clotting prolongation assay, 96-well plate format (OD405 turbidity change, aPTT reagent). The following applies: 125 nM betrixaban, no r-Antidote, no FX; FIG. 26. The class given is biochemical.
Series [5] deals with pooled human plasma. Put plainly: aPTT clotting assay, MLA Electra 800 automatic coagulation timer. The class given is biochemical.
Method: Two clotting assay formats were used to test the effects of factor Xa inhibitors and the antidote on clotting prolongation. […] In the second assay format, aPTT was measured with a conventional coagulation instrument (MLA Electra 800 automatic coagulation timer).
The effect of 1 antiXa Unit/mL LMWH on aPTT prolongation of plasma and the reversal of inhibitory effect was measured by a MLA Electra 800 Automatic coagulation timer. 100 μL pooled citrate anticoagulated human plasma was mixed with enoxaparin and different concentrations of antidote. Prior to measurement of clotting time, aPTT reagent (Actin FS, Dade Behring) and CaCl2 were added per manufacturer's instructions.

In the case of `O=C(NC[C@H]1CN(c2ccc(N3CCOCC3=O)cc2)C(=O)O1)c1ccc(Cl)s1` [rivaroxaban], the PT in the series with pooled human plasma [1] came out at 25 ± 0.4 s. Besides, in series [2] (clinically effective doses), the peak plasma concentrations is ≤ 318 ng/ml and ≤ 730 nM. Besides, the therapeutic concentrations entry in series [2] (reported, Kubitza 2005) was “approximately 600 nM”.

Regarding “[2-({4-[(dimethylamino)iminomethyl]phenyl}carbonylamino)-5-methoxyphenyl]-N-(5-chloro(2-pyridyl))carboxamide [betrixaban]”, the “inhibition of fXa by betrixaban (thrombin generation)” value in series [3] is listed as “about 75%”. Besides, the “effect on clotting time” value in series [4] is given as “doubled the clotting time”. In addition, the “aPTT” value in the series with pooled human plasma [5] (300 nM Betrixaban alone) turned out to be 61.8 s; in the series with pooled human plasma [5] (400 nM Betrixaban alone (Table 17)) it was 66.3 s; in the series with pooled human plasma [5] (400 nM betrixaban alone (Example 17, baseline 25.5 sec)), 51.6 ± 0.4 s. For the same compound, the “extension of aPTT” value with pooled human plasma [5] (400 nM betrixaban, FIG. 13) is listed as “more than two folds”.

In the case of “fIX: human plasma derived blood coagulation factor IX (Haematologic Technologies)”, the aPTT in the series with pooled human plasma [5] (258 nM fIX, 400 nM betrixaban) was 43.8 s. In addition, the “correction of aPTT” value in the series on pooled human plasma [5] (258 nM fIX, 400 nM betrixaban) came to 15%; in the series with pooled human plasma [5] (387 nM fIX, 400 nM betrixaban) it was 15%. For the same compound, the “effect on aPTT in human plasma” value in the series on pooled human plasma [5] (fIX, absence of betrixaban, FIG. 25) is recorded as “slightly reduced aPTT”.
